Measured values taken from US20250339569A1, “CARBONIC ANHYDRASE IX LIGANDS” (priority 2021, published 2025).
Like-named read-outs stand apart in the source and are kept apart here. Starred links: 1 amine or outer side, 2 acyl side, 3 side chain; linkers in the order of their positions; H or OH if unused. Positions of bridges follow the written chain, without caps; N, C: chain ends. Non-standard residues stand in square brackets, D forms with d. Residues, ends and D or L forms follow the SMILES beside them. *: point of attachment. NH(CH2)3NH(O2Oc(DOTA)) = O=C(O)CN1CCN(CC(=O)O)CCN(CC(=O)NCCOCCOCC(=O)NCCCN*)CCN(CC(=O)O)CC1; NH(CH2)3NHDOTA = O=C(O)CN1CCN(CC(=O)O)CCN(CC(=O)NCCCN*)CCN(CC(=O)O)CC1; NH(1-deoxy-D-glucityl) = OC[C@@H](O)[C@@H](O)[C@H](O)[C@@H](O)CN*; DOTA = O=C(O)CN1CCN(CC(=O)O)CCN(CC(=O)*)CCN(CC(=O)O)CC1; mXylylene = c1cc(C[*:1])cc(C[*:2])c1; Orn(Me2) = CN(C)CCC[C@H](N)C(=O)O; Trx = NC[C@H]1CC[C@H](C(=O)O)CC1; X2 = O=C(CN1CCC(N[*:1])CC1)[*:2]; tBuAla = CC(C)(C)C[C@H](N)C(=O)O; Propanoyl(3-OH) = O=C(CCO)*; Ac6c = NC1(C(=O)O)CCCCC1; Dap = NC[C@H](N)C(=O)O

Experiments:
[1] = target: T1, CAIX-expressing human HT-29 colorectal cancer cells (Homo sapiens, UniProt Q16790); assay: FACS binding assay (IC50 determination, competition with tracer 3BP-2776 or 3BP-4149); settings: 4° C., 1 hour, read-out: pIC50 category (activity) (converted)
T1 construct: CAIX-expressing human HT-29 colorectal cancer cells; host or cells: HT-29 human colorectal cancer cells
In short: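 HT-29 cells in FACS buffer (PBS, 1% FCS) at 500.000 cells/ml were exposed to compounds competing with a labelled tracer, with biotinylated compounds detected by 1 μg/mL APC-streptavidin for 30 min on ice. APC/Cy5 median fluorescence was read by flow cytometry and IC50 derived by 4PL fit.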

[2] = target: T2, human carbonic anhydrase IX (hCAIX-Fc) (Homo sapiens, UniProt Q16790); assay: Surface plasmon resonance assay with hCAIX-Fc; format: binding; settings: 25° C.; for t1/2 category (activity): SPR dissociation half-life, hCAIX-Fc; for Kd: SPR, hCAIX-Fc captured, read-out: pKD category (activity) (converted)
T2 construct: purchased SinoBliological (Sino Biological) 10107-H02H

[3] = Plasma stability assay, mouse plasma; settings: mouse plasma, 37°C, 24 h
[4] = FACS binding assay, HT-29 cells, competition with tracer 3BP-2776 (10 nM, biotin-labeled)
[5] = FACS competition on HT-29 cells, Tracer ID 3BP-2776 (10 nM, biotin-labeled)

IC50 [1, 4] | t1/2 category (activity) [2] | Kd [2] | % intact compound remaining (incubation time) [3] | IC50 [1, 5] | SMILES
< 10 nM | A (t1/2>15.0 minutes) | < 10 nM | 91% | – | CC(C)[C@H](NC(=O)CN1CCC(NC(=O)CN2CCN(CC(=O)O)CCN(CC(=O)O)CCN(CC(=O)O)CC2)CC1)C(=O)N[C@@H](Cc1ccc(O)cc1)C(=O)N[C@H]1CSCc2cccc(c2)CSC[C@@H](C(N)=O)NC(=O)[C@H](CO)NC(=O)[C@H](Cc2c[nH]c3ccccc23)NC(=O)[C@H]([C@@H](C)O)NC(=O)[C@H](CC(C)(C)C)NC(=O)[C@H](Cc2c[nH]c3ccccc23)NC(=O)[C@H](CC(=O)O)NC(=O)[C@H]2CCCN2C(=O)[C@H](CCC(=O)O)NC1=O [3BP-4142] ({DOTA}-[X2]VYCE[dP]DW[tBuAla]TWSC-NH2; linker 4-13 via mXylylene)
< 10 nM | B (t1/2 between 5.1 and 15.0 minutes) | < 10 nM | 93% | – | CC(C)C[C@@H]1NC(=O)[C@H](Cc2c[nH]c3ccccc23)NC(=O)[C@H](CC(=O)O)NC(=O)[C@H]2CCCN2C(=O)[C@H](CCCN(C)C)NC(=O)[C@@H](NC(=O)[C@H](Cc2ccc(O)cc2)NC(=O)[C@@H](NC(=O)CN2CCC(NC(=O)CN3CCN(CC(=O)O)CCN(CC(=O)O)CCN(CC(=O)O)CC3)CC2)C(C)C)CSCc2cccc(c2)CSC[C@@H](C(N)=O)NC(=O)[C@H](CO)NC(=O)[C@H](Cc2c[nH]c3ccccc23)NC(=O)[C@H]([C@@H](C)O)NC1=O [3BP-4096] ({DOTA}-[X2]VYC[Orn(Me2)][dP]DWLTWSC-NH2; linker 4-13 via mXylylene)
– | C (t1/2 between 2.1 and 5.0 minutes) | < 10 nM | >95% | < 10 nM | CC(C)C[C@@H]1NC(=O)[C@H](Cc2c[nH]c3ccccc23)NC(=O)[C@H](CC(=O)O)NC(=O)[C@H]2CCCN2C(=O)[C@H](CCC(=O)O)NC(=O)[C@@H](NC(=O)[C@H](Cc2ccc(O)cc2)NC(=O)CCO)CSCc2cccc(c2)CSC[C@@H](C(N)=O)NC(=O)[C@H](CCC(=O)NCCCNC(=O)CN2CCN(CC(=O)O)CCN(CC(=O)O)CCN(CC(=O)O)CC2)NC(=O)[C@H](Cc2c[nH]c3ccccc23)NC(=O)[C@H]([C@@H](C)O)NC1=O [3BP-3842] ({Propanoyl(3-OH)}-YCE[dP]DWLTWE(NH(CH2)3NHDOTA)C-NH2; linker 2-11 via mXylylene)
< 10 nM | B (t1/2 between 5.1 and 15.0 minutes) | < 10 nM | >95% | – | CC(C)C[C@@H]1NC(=O)[C@H](Cc2c[nH]c3ccccc23)NC(=O)[C@H](CC(=O)O)NC(=O)[C@H]2CCCN2C(=O)[C@H](CCC(=O)O)NC(=O)[C@@H](NC(=O)[C@H](CCC(=O)NC[C@H](O)[C@@H](O)[C@H](O)[C@H](O)CO)NC(=O)[C@@H](NC(=O)CN2CCC(NC(=O)CN3CCN(CC(=O)O)CCN(CC(=O)O)CCN(CC(=O)O)CC3)CC2)C(C)C)CSCc2cccc(c2)CSC[C@@H](C(N)=O)NC(=O)[C@H](CO)NC(=O)[C@H](Cc2c[nH]c3ccccc23)NC(=O)[C@H]([C@@H](C)O)NC1=O [3BP-4112] ({DOTA}-[X2]VE(NH(1-deoxy-D-glucityl))CE[dP]DWLTWSC-NH2; linker 4-13 via mXylylene)
– | B (t1/2 between 5.1 and 15.0 minutes) | < 10 nM | >95% | < 10 nM | CC(=O)N[C@@H](CO)C(=O)N[C@@H](Cc1ccc(O)cc1)C(=O)N[C@H]1CSCc2cccc(c2)CSC[C@@H](C(N)=O)NC(=O)[C@H](CCC(=O)NCCCNC(=O)COCCOCCNC(=O)CN2CCN(CC(=O)O)CCN(CC(=O)O)CCN(CC(=O)O)CC2)NC(=O)[C@H](Cc2c[nH]c3ccccc23)NC(=O)[C@H]([C@@H](C)O)NC(=O)[C@H](CC(C)C)NC(=O)[C@H](Cc2c[nH]c3ccccc23)NC(=O)[C@H](CC(=O)O)NC(=O)[C@H]2CCCN2C(=O)[C@H](CCC(=O)O)NC1=O [3BP-3732] (Ac-SYCE[dP]DWLTWE(NH(CH2)3NH(O2Oc(DOTA)))C-NH2; linker 3-12 via mXylylene)
< 10 nM | C (t1/2 between 2.1 and 5.0 minutes) | < 10 nM | 93% | – | CC(C)C[C@@H]1NC(=O)[C@H](Cc2c[nH]c3ccccc23)NC(=O)[C@H](CC(=O)O)NC(=O)[C@H]2CCCN2C(=O)[C@H](CCC(=O)O)NC(=O)[C@@H]2CSCc3cccc(c3)CSC[C@@H](C(N)=O)NC(=O)[C@H](CNC(=O)C[C@H](NC(=O)[C@H]3CC[C@H](CNC(=O)CN4CCN(CC(=O)O)CCN(CC(=O)O)CCN(CC(=O)O)CC4)CC3)C(=O)N2)NC(=O)[C@H](Cc2c[nH]c3ccccc23)NC(=O)[C@H]([C@@H](C)O)NC1=O [3BP-4258] ({DOTA-Trx}-DCE[dP]DWLTW[Dap]C-NH2; lactam 1-10; linker 2-11 via mXylylene)
– | B (t1/2 between 5.1 and 15.0 minutes) | < 10 nM | >95% | < 10 nM | CC(=O)N[C@H](C(=O)N[C@@H](Cc1ccccc1)C(=O)N[C@H]1CSCc2cccc(c2)CSC[C@@H](C(N)=O)NC(=O)[C@H](CCC(=O)NCCCNC(=O)CN2CCN(CC(=O)O)CCN(CC(=O)O)CCN(CC(=O)O)CC2)NC(=O)[C@H](Cc2c[nH]c3ccccc23)NC(=O)[C@H]([C@@H](C)O)NC(=O)[C@H](CC(C)C)NC(=O)[C@H](Cc2c[nH]c3ccccc23)NC(=O)[C@H](CC(=O)O)NC(=O)[C@H]2CCCN2C(=O)[C@H](CCC(=O)O)NC1=O)C(C)C [3BP-3874] (Ac-VFCE[dP]DWLTWE(NH(CH2)3NHDOTA)C-NH2; linker 3-12 via mXylylene)
– | – | – | 91% | – | CC(C)C[C@@H]1NC(=O)[C@H](Cc2c[nH]c3ccccc23)NC(=O)[C@@H]2CCCCNC(=O)CC[C@H](NC1=O)C(=O)N[C@@H](Cc1c[nH]c3ccccc13)C(=O)N[C@@H](CO)C(=O)N[C@H](C(N)=O)CSCc1cccc(c1)CSC[C@H](NC(=O)[C@H](Cc1ccc(O)cc1)NC(=O)CN1CCN(CC(=O)O)CCN(CC(=O)O)CCN(CC(=O)O)CC1)C(=O)N[C@@H](CCC(=O)O)C(=O)N1CCC[C@@H]1C(=O)N2 [3BP-4053] ({DOTA}-YCE[dP]KWLEWSC-NH2; linker 2-11 via mXylylene; lactam 5-8)
– | B (t1/2 between 5.1 and 15.0 minutes) | < 10 nM | >95% | < 10 nM | CC(C)[C@H](NC(=O)CN1CCC(NC(=O)CN2CCN(CC(=O)O)CCN(CC(=O)O)CCN(CC(=O)O)CC2)CC1)C(=O)N[C@@H](Cc1ccc(O)cc1)C(=O)N[C@H]1CSCc2cccc(c2)CSC[C@@H](C(N)=O)NC(=O)[C@H](CO)NC(=O)[C@H](Cc2c[nH]c3ccccc23)NC(=O)[C@H]([C@@H](C)O)NC(=O)C2(CCCCC2)NC(=O)[C@H](Cc2c[nH]c3ccccc23)NC(=O)[C@H](CC(=O)O)NC(=O)[C@H]2CCCN2C(=O)[C@H](CCC(=O)O)NC1=O [3BP-3584] ({DOTA}-[X2]VYCE[dP]DW[Ac6c]TWSC-NH2; linker 4-13 via mXylylene)
– | – | – | 76% | – | CC(=O)N[C@H](C(=O)N[C@@H](CCCNC(=N)N)C(=O)N[C@H]1CSCc2cccc(c2)CSC[C@@H](C(N)=O)NC(=O)[C@H](CCC(=O)NCCCNC(=O)COCCOCCNC(=O)CN2CCN(CC(=O)O)CCN(CC(=O)O)CCN(CC(=O)O)CC2)NC(=O)[C@H](Cc2c[nH]c3ccccc23)NC(=O)[C@H]([C@@H](C)O)NC(=O)[C@H](CC(C)C)NC(=O)[C@H](Cc2c[nH]c3ccccc23)NC(=O)[C@H](CC(=O)O)NC(=O)[C@H]2CCCN2C(=O)[C@H](CCC(=O)O)NC1=O)C(C)C [3BP-3845] (Ac-VRCE[dP]DWLTWE(NH(CH2)3NH(O2Oc(DOTA)))C-NH2; linker 3-12 via mXylylene)
– | – | < 10 nM | >95% | – | CC(C)C[C@@H]1NC(=O)[C@H](Cc2c[nH]c3ccccc23)NC(=O)[C@H](CC(=O)O)NC(=O)[C@H]2CCCN2C(=O)[C@H](CCC(=O)O)NC(=O)[C@@H](NC(=O)[C@H](Cc2ccc(O)cc2)NC(=O)CN2CCN(CC(=O)O)CCN(CC(=O)O)CCN(CC(=O)O)CC2)CSCc2cccc(c2)CSC[C@@H](C(N)=O)NC(=O)[C@H](CO)NC(=O)[C@H](Cc2c[nH]c3ccccc23)NC(=O)[C@H]([C@@H](C)O)NC1=O [3BP-3906] ({DOTA}-YCE[dP]DWLTWSC-NH2; linker 2-11 via mXylylene)

SMILES | IC50 [1, 4] | t1/2 category (activity) [2] | Kd [2] | % intact compound remaining (incubation time) [3] | IC50 [1, 5]
CC(C)C[C@@H]1NC(=O)[C@H](Cc2c[nH]c3ccccc23)NC(=O)[C@H](CC(=O)O)NC(=O)[C@H]2CCCN2C(=O)[C@H](CCC(=O)O)NC(=O)[C@@H](NC(=O)[C@H](Cc2ccc(O)cc2)NC(=O)[C@@H](NC(=O)CN2CCC(NC(=O)CN3CCN(CC(=O)O)CCN(CC(=O)O)CCN(CC(=O)O)CC3)CC2)C(C)C)CSCc2cccc(c2)CSC[C@@H](C(N)=O)NC(=O)[C@H](CO)NC(=O)[C@H](Cc2c[nH]c3ccccc23)NC(=O)[C@H]([C@@H](C)O)NC1=O [3BP-3905] ({DOTA}-[X2]VYCE[dP]DWLTWSC-NH2; linker 4-13 via mXylylene) | – | – | < 10 nM | 83% | –
